# System: soybeans
# Assay: Soybean field trial, Wilkin County, Minnesota (NKS06-H5 seed)
# Type: in vivo
# Protocol: To test the efficacy of using a sugar based fertilizer composition with soybeans, field trials using Northrup-King NKS06-H5 soybean seed were conducted in Wilkin County, Minnesota. A total of six (6) treatments were conducted. Each treatment was replicated four times arranged in a Randomized Complete Block (RCB) Design in the same field. Each replication consisted of a plot having a width of six (6) rows with twenty two (22) inch row spacing having a row length of twenty five (25) feet. To reduce/eliminate any treatment impacts between adjacent plots, only the four (4) interior rows of each plot were treated and evaluated. With the exception of the treatment program applied to the individual plots, which will be discussed below, conventional commercial growing practices were otherwise followed during the field trials. The individual plots experienced the same growing conditions throughout the season.
# The treatment regimen for the soybeans included one (1) untreated treatment in which no sugar was applied and was used as the control element. One (1) treatment included treatment with Sun Energy Foliar Fertilizer (SE). […] SE was supplied in liquid form and applied by spraying while GS was supplied in a conventional solid form and applied via broadcast spreading. SE is for foliar application and was applied according to the labeling instructions on post-emergent (Post) soybean plants at both the Vegetative Fourth Trifoliolate (V4) and Reproductive Beginning Flowering (R1) stages. GS was applied at a variety of times, both pre-planting (Pre) and on post-emergent (Post) soybean plants at either or the V4 or R1 stages. When applied during pre-planting (Pre), the GS was spread directly on the soil before spring tillage, lightly worked into the ground and followed by planting of the soybean seed into the treated ground. A summary of the plot treatments is contained in Table 4 below:
# Following a conventional growing season, the middle four rows of each plot were harvested and data collected for overall yield (bushels of soybeans/Acre), protein dry basis (%) and oil dry basis (%). Fisher's Exact LSD was the statistical test of choice for mean separation for the individual plots of each treatment. A summary of the soybean harvest data is contained in Table 5 below: […]
# [1] = Replication 3: 100 pounds/Acre Pre + 3 pounds/Acre Post (V4)
# [2] = Replication 4: 3 pounds/Acre Post (R1)
# [3] = Replication 5: 5 pounds/Acre Post (R1)
# [4] = Replication 6: 100 pounds/Acre Pre + 5 pounds/Acre Post (V4)
smiles,measurement,setting,value
"OC[C@H]1O[C@@](CO)(O[C@H]2O[C@H](CO)[C@@H](O)[C@H](O)[C@H]2O)[C@@H](O)[C@@H]1O [GS, sucrose]",side-by-side visual comparison of soybean plants with untreated check,"GS 100 pounds/acre prior to planting, 40 and 60 days after planting (FIGS. 7-9)",larger more robust soybean plants
same,Bushels of Soybeans/Acre,[1],52.92 bushels/Acre
same,Yield Increase (Treatment Bushels of Soybeans/Acre)/(Check Bushels of Soybeans/Acre),[1],31.84%
same,Bushels of Soybeans/Acre,[2],35.56 bushels/Acre
same,Yield Increase (Treatment Bushels of Soybeans/Acre)/(Check Bushels of Soybeans/Acre),[2],−11.41%
same,Bushels of Soybeans/Acre,[3],40.14 bushels/Acre
same,Yield Increase (Treatment Bushels of Soybeans/Acre)/(Check Bushels of Soybeans/Acre),[3],0.00%
same,Bushels of Soybeans/Acre,[4],45.28 bushels/Acre
same,Yield Increase (Treatment Bushels of Soybeans/Acre)/(Check Bushels of Soybeans/Acre),[4],12.81%
same,yield increase as compared to the untreated check,every pre-planting (Pre) application of GS,at least 12.8%
same,yield data,only post-emergent application of GS,inconclusive
